SMILES strings stand for the structures. Where two headings read alike, the source gives them in different places.

In one data set the test system is HaCaT cells. Nature of the data set: Alamar Blue cytotoxicity on HaCaT cells. It is filed as cell-based. The conditions noted are these: Homo sapiens, read-out: IC50 HaCaT. For orientation: Resazurin is reduced to fluorescent resorufin, in cell work by metabolically active cells.
Another data set concerns A375 cells. Nature of the data set: Alamar Blue cytotoxicity on A375 cells. It counts as cell-based, human. The conditions noted are these: for IC50: Homo sapiens, read-out: IC50 A375; for Selectivity Index SIb: SIb = IC50 HaCaT/IC50 A375.
In another data set the target is T1, Human VEGFR-2 (KDR) (Homo sapiens, UniProt P35968).
T1 construct: purchased BPS Bioscience 40325
Nature of the data set: In vitro VEGFR2 kinase inhibition assay. It counts as biochemical. To be noted: for inhibition at 0.5 µM: read-out: VEGFR2 Kinase Inhibitory Activity % of Inhibition (500 nM); for IC50: isolated kinase domain, 45 min at 30 °C. On the procedure: The experimental assay was conducted according to the manufacturer’s instructions. […] The incubation time was set for 45 min at 30 °C. Inhibitory potential towards the kinase domain was quantified by luminescence detection, after the addition of the Kinase-Glo™ MAX reagent (Promega, Madison, WI, USA, catalog #v6071). After further incubation for an additional 15 min, the luminescence was recorded using a microplate reader Synergy 2 Multi-Mode.

Data set [1] has as its system Ea.Hy926 cells. Nature of the data set: Alamar Blue cytotoxicity on Ea.Hy926 cells. To be noted: for IC50: read-out: IC50 EA.hy926, 48 h exposure, Alamar Blue; for Selectivity Index SIa: SIa = IC50 HaCaT/IC50 EA.hy296.
Experimental: (§1) To the growth media of all the cell lines, 1% penicillin/streptomycin and 10% FBS were added. The cell lines were cultured in standardized conditions (37 °C and 5% CO2) with the initiation of the experimental protocol once an 80–90% confluency was reached.
(§2) The spectrophotometric quantification (λemission = 590/35, λexcitation = 530/25) of resorufin by the metabolic-dependent conversion of the resazurin by the viable cells was achieved using the microplate reader Synergy 2 Multi-Mode. The cells were seeded in 100 µL of growth media in 96-well plates at the specified density (Ea.Hy296—5 × 10^3 cells/well, HaCaT—8 × 10^3 cells /well, and A375—7 × 10^3 cells /well) and were left overnight to attach. […] After 48 h of cultivation, the growth media was removed, and the AB assay was performed for the quantification of the viable cells post-exposure to the selected compounds. Three biological replicates were performed for each biological experiment with six technical replicates, using 0.2% DMSO as the negative control (NC) for data normalization (100% viability). The IC50 values were calculated based on the dose–cellular viability curve ratio obtained by fitting the experimental data with a 4-parameter logistic curve (SigmaPlot 11).
The test system of data set [2] is Ea.Hy926 cells. Nature of the data set: Wound healing (scratch) assay. It counts as cell-based, human. To be noted: 12 h. As to the method: Confluent Ea.Hy926 monolayers were formed by seeding the cells for 24 h in a 12-well plate incubated in a starvation medium. After the confluency was reached, the medium was removed and a scratch was performed using the sterile tip of a 100 µL pipette. Detached cells were removed by washing the cellular monolayers twice with DPBS, and then the cells were photographed individually (phase-contrast microscopy, 10x objective) to assess the wound area at the moment of exposure (T0). […] For each experiment, an image was captured 12 h post-exposure (T12), and the rate of Ea.Hy926 cell migration was quantitatively evaluated by the wound healing percentage (%) calculated by the formula (AT0 − AT12)/ AT0 × 100 [35]. The scratch areas at T0 (AT0) and T12 (AT12), respectively, were determined with the IKOSA Prisma Application Wound Healing (Scratch) assay (v2.2.0) and are expressed as square pixels (Px^2).

Data set [3] has as its system chick chorioallantoic egg membrane (CAM). Nature of the data set: Chorioallantoic egg membrane (CAM) assay. It counts as in vivo. The conditions noted are these: 1 µM, 5 µM and 10 µM, 5-day protocol. As to the method:
Eggs without deformities and weighing between 50 and 60 g were selected. The eggs were cleaned with 70% alcohol and incubated for 14 days in standard conditions (37.5 °C, humidity 65%). On the 4th day of incubation, approximately 10–12 mL of egg white (albumen) was extracted from the top of each egg using a medical syringe with a needle for the detachment of the egg membrane. On the 5th day, the eggs were checked for fertility using a light source, and a window large enough to reveal the vascular plexus was cut out with forceps. The window was then sealed with medical tape to maintain favorable conditions for embryonic development. Optimal ventilation conditions, temperature, and humidity were ensured throughout incubation to facilitate proper embryo growth. […] For this purpose, a transparent silicone ring was applied to the vascular plexus of the CAM using a tweezer. In this ring, 10 μL of each test sample was applied for 4 days. […] Pictures were taken daily (days 1–5 of exposure) to observe the effects of the samples on the angiogenic process, and the changes observed were noted. For microscopic analysis, a Zeiss SteREO Discovery.V8 stereomicroscope was used, coupled with a Zeiss Axiocam 105 digital camera, both connected to a computer. The images presented in this study were captured using the ZEN core 3.8 software. The scale bar from the images represents a measurement of 500 μm.

Where [4] appears, read: A-375, 48 h exposure, Alamar Blue.

T1 sequence (P35968 805-1356): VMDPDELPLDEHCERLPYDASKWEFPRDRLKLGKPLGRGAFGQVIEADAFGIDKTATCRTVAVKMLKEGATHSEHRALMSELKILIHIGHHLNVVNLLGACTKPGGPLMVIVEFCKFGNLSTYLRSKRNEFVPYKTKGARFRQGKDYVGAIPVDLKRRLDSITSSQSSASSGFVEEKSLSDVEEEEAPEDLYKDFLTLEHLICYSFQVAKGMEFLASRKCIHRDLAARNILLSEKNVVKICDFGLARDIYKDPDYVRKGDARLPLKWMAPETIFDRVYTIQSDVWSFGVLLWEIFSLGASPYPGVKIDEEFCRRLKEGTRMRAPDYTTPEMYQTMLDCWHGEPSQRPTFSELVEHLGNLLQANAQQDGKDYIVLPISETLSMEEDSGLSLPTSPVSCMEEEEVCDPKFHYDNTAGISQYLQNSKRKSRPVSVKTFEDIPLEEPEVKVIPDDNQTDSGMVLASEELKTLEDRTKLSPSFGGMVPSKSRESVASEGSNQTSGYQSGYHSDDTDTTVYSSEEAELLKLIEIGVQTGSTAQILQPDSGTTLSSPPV
Experimental for A375 cells: as §1, §2
Experimental for HaCaT cells: as §1, §2

As for `COc1cccc(NC(=S)NN=Cc2ccc(Oc3ncnc4cc(OC)c(OC)cc34)cc2)c1` [TSC8, N-(3-methoxyphenyl)-2-(4-((6,7-dimethoxyquinazolin-4-yl)oxy)benzylidene)hydrazine-1-carbothioamide], the IC50 (as a rule, the concentration that gives 50% inhibition) was greater than 100 µM in the data set with HaCaT cells (48 h exposure, Alamar Blue); greater than 100 µM in the data set with A375 cells (setting [4]); greater than 100 µM in the data set with Ea.Hy926 cells [1]. Also, the inhibition – broadly, the share of the control response that was lost under treatment – at 0.5 µM at Human VEGFR-2 (KDR) turned out to be 0%.
For the compound `COc1cc2ncnc(Oc3ccc(C=NNC(=S)Nc4ccccc4)cc3)c2cc1OC` [TSC5, N-phenyl-2-(4-((6,7-dimethoxyquinazolin-4-yl)oxy)benzylidene)hydrazine-1-carbothioamide], the half-maximal inhibitory concentration (IC50) in the data set with HaCaT cells (48 h exposure, Alamar Blue) is 16.4 µM; in the data set with A375 cells (setting [4]), 17.4 µM; on Human VEGFR-2 (KDR) it was 0.378 µM; in the data set with Ea.Hy926 cells [1], 7.47 µM. The “Selectivity Index SIb” value in the data set on A375 cells is 0.95. Besides, the inhibition at 0.5 µM at Human VEGFR-2 (KDR) was determined as 71%. Further, the motility inhibition potential in the data set with Ea.Hy926 cells [2] (1.25-5 µM, versus 0.2% DMSO) was 11.19–12.82%. Also, in data set [3], the “anti-angiogenic effect in CAM” value was “pronounced decrease in CAM vascularization”. The “cytotoxic potential relative to sorafenib” value with Ea.Hy926 cells [1] (Ea.Hy296 cells, 48 h) was 1.35 fold. In addition, in the data set with Ea.Hy926 cells [1], the “Selectivity Index SIa” value was determined as 2.20.
On to `COc1cc2ncnc(Oc3ccc(/C=N/NC(=S)Nc4cccc(Cl)c4Cl)cc3)c2cc1OC` [TSC10, (E)-N-(2,3-dichlorophenyl)-2-(4-((6,7-dimethoxyquinazolin-4-yl)oxy)benzylidene)hydrazine-1-carbothioamide], for which the IC50 with HaCaT cells (48 h exposure, Alamar Blue) turned out to be 52.4 µM; with A375 cells (setting [4]) it was 28.6 µM; on Human VEGFR-2 (KDR) it was 0.119 µM; in the data set on Ea.Hy926 cells [1] it was 12.8 µM. Besides, the “Selectivity Index SIb” value in the data set on A375 cells was found to be 1.83. In addition, the inhibition at 0.5 µM on Human VEGFR-2 (KDR) is 89.1%. Besides, the “anti-angiogenic effect in CAM” value in data set [3] was “potent anti-angiogenic properties were observed”. Further, the “Selectivity Index SIa” value with Ea.Hy926 cells [1] is recorded as 4.09.
In the case of `COc1cc2ncnc(Oc3ccc(C=NNC(=S)Nc4ccc(Cl)c(C(F)(F)F)c4)cc3)c2cc1OC` [TSC6, N-(4-chloro-3-(trifluoromethyl)phenyl)-2-(4-((6,7-dimethoxyquinazolin-4-yl)oxy)benzylidene)hydrazine-1-carbothioamide], the IC50 turned out to be 23 µM in the data set on HaCaT cells (48 h exposure, Alamar Blue); 61 µM with A375 cells (setting [4]); 16.5 µM in the data set on Ea.Hy926 cells [1]. In the data set on A375 cells, the “Selectivity Index SIb” value is 0.38. In addition, on Human VEGFR-2 (KDR), the inhibition at 0.5 µM came out at 0%. Moreover, in the data set with Ea.Hy926 cells [1], the “Selectivity Index SIa” value is 1.40.
On to `C=CCNC(=S)NN=Cc1ccc(Oc2ncnc3cc(OC)c(OC)cc23)cc1` [TSC1, N-allyl-2-(4-((6,7-dimethoxyquinazolin-4-yl)oxy)benzylidene)hydrazine-1-carbothioamide], for which the IC50 in the data set on HaCaT cells (48 h exposure, Alamar Blue) is roughly 100 µM; in the data set with A375 cells (setting [4]), greater than 100 µM; on Human VEGFR-2 (KDR), 0.389 µM. For the same compound, the inhibition at 0.5 µM on Human VEGFR-2 (KDR) amounted to 52.7%. Further, in the data set on Ea.Hy926 cells [1], the “Selectivity Index SIa” value is 2.00.
On to `CNC(=O)c1cc(Oc2ccc(NC(=O)Nc3ccc(Cl)c(C(F)(F)F)c3)cc2)ccn1` [Sorafenib, sorafenib, reference compound], for which the IC50 turned out to be 12.9 µM in the data set on HaCaT cells (48 h); 5.26 µM with A375 cells (A-375, 48 h); 10.2 µM in the data set with Ea.Hy926 cells [1]. Moreover, the “inhibition of the mobility of Ea.Hy296 cells” value in the data set with Ea.Hy926 cells [2] (5 µM) is “almost total inhibition”. Moreover, in data set [3], the “anti-angiogenic effect in CAM” value is “potent anti-angiogenic effect was observed across all three tested concentrations”.
Regarding `COc1cc2ncnc(Oc3ccc(C=NNC(=S)NC(C)C)cc3)c2cc1OC` [TSC9, N-isopropyl-2-(4-((6,7-dimethoxyquinazolin-4-yl)oxy)benzylidene)hydrazine-1-carbothioamide], the IC50 with HaCaT cells (48 h exposure, Alamar Blue) is 86.8 µM; with A375 cells (setting [4]), greater than 100 µM; at Human VEGFR-2 (KDR), 0.379 µM; in the data set on Ea.Hy926 cells [1], 12.6 µM. In addition, the inhibition at 0.5 µM at Human VEGFR-2 (KDR) was 70.5%. For the same compound, the “reduction in the wound closure area” value with Ea.Hy926 cells [2] (highest evaluated concentration (TSC9 12.5 µM, TSC10 7.5 µM)) was 25.63%. Further, the “anti-angiogenic effect in CAM” value in data set [3] is “anti-angiogenic properties were also demonstrated across all three tested concentrations”. Also, the “Selectivity Index SIa” value in the data set on Ea.Hy926 cells [1] is listed as 6.90.
Consider `COc1cc2ncnc(Oc3ccc(/C=N/NC(=S)Nc4cccc(C(F)(F)F)c4)cc3)c2cc1OC` [TSC2, N-(3-(trifluoromethyl)-phenyl)-2-(4-((6,7-dimethoxyquinazolin-4-yl)oxy)benzylidene)-hyrazine-1-carbothioamide], for which the IC50 in the data set on HaCaT cells (48 h exposure, Alamar Blue) is greater than 100 µM; in the data set with A375 cells (setting [4]), greater than 100 µM; on Human VEGFR-2 (KDR) it was 0.341 µM; in the data set with Ea.Hy926 cells [1], greater than 100 µM. For the same compound, at Human VEGFR-2 (KDR), the inhibition at 0.5 µM is 59.5%.
Consider `COc1cc2ncnc(Oc3ccc(C=NNC(=S)Nc4ccc(F)cc4)cc3)c2cc1OC` [TSC3, N-(4-fluorophenyl)-2-(4-((6,7-dimethoxyquinazolin-4-yl)oxy)benzylidene)hydrazine-1-carbothioamide], for which the concentration for half-maximal inhibition (IC50) in the data set on HaCaT cells (48 h exposure, Alamar Blue) is 28.6 µM; in the data set on A375 cells (setting [4]), greater than 100 µM; at Human VEGFR-2 (KDR) it was 0.239 µM; with Ea.Hy926 cells [1], 26.5 µM. For the same compound, the inhibition at 0.5 µM at Human VEGFR-2 (KDR) amounted to 62.1%. Besides, in the data set with Ea.Hy926 cells [1], the “Selectivity Index SIa” value came out at 1.08.
In the case of `COc1cc2ncnc(Oc3ccc(C=NNC(=S)Nc4ccc(F)c(F)c4)cc3)c2cc1OC` [TSC7, N-(3,4-difluorophenyl)-2-(4-((6,7-dimethoxyquinazolin-4-yl)oxy)benzylidene)hydrazine-1-carbothioamide], the IC50 with HaCaT cells (48 h exposure, Alamar Blue) was 53.8 µM; with A375 cells (setting [4]), greater than 100 µM; with Ea.Hy926 cells [1], 43.2 µM. The inhibition at 0.5 µM on Human VEGFR-2 (KDR) was found to be 21.1%. Moreover, the “Selectivity Index SIa” value in the data set with Ea.Hy926 cells [1] was 1.25.
As to `COc1cc2ncnc(Oc3ccc(C=NNC(=S)Nc4ccc(Cl)cc4)cc3)c2cc1OC` [TSC4, N-(4-chlorophenyl)-2-(4-((6,7-dimethoxyquinazolin-4-yl)oxy)benzylidene)hydrazine-1-carbothioamide], the concentration for half-maximal inhibition (IC50) in the data set on HaCaT cells (48 h exposure, Alamar Blue) was found to be 15.9 µM; in the data set on A375 cells (setting [4]) it was 14.8 µM; in the data set on Ea.Hy926 cells [1], 14.5 µM. Besides, the “Selectivity Index SIb” value in the data set on A375 cells is listed as 1.08. On Human VEGFR-2 (KDR), the inhibition at 0.5 µM was 40.5%. In the data set with Ea.Hy926 cells [1], the “Selectivity Index SIa” value is listed as 1.10.

These data come from article PMC11860020, “Rational Design and Synthesis of a Novel Series of Thiosemicarbazone-Containing Quinazoline Derivatives as Potential VEGFR2 Inhibitors” (Pharmaceutics, 2025).
